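Each compound was tested at five concentrations against cells in 96-well plates for 48 hours. GI50 marks 50% less growth.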 Activity calls are given as the source filed them. Cut-off read from the data, not from the text of the source: active = GI50 up to about 1.1 µM and inactive = higher.
Tests used:
Test in all cases: NCI-60 cell line screen, 48 h
OVCAR-8 = system: OVCAR-8
SNB-75 = system: SNB-75
RPMI-8226 = system: RPMI-8226
MDA-MB-231 = system: MDA-MB-231
MDA-MB-435 = system: MDA-MB-435
HCC 2998 = system: HCC 2998
MOLT-4 = system: MOLT-4
U-251 = system: U-251
A549 = system: A549
SK-MEL-5 = system: SK-MEL-5
NCI-H460 = system: NCI-H460
UACC-257 = system: UACC-257
HL-60 = system: HL-60
HCT-15 = system: HCT-15
CAKI-1 = system: CAKI-1
NCI-H23 = system: NCI-H23
SK-OV-3 = system: SK-OV-3
UACC-62 = system: UACC-62
786-0 = system: 786-0
NCI-H226 = system: NCI-H226

| Structure (SMILES) | GI50 (OVCAR-8) | GI50 (SNB-75) | GI50 (RPMI-8226) | GI50 (MDA-MB-231) | GI50 (MDA-MB-435) | GI50 (HCC 2998) | GI50 (MOLT-4) | GI50 (U-251) | GI50 (A549) | GI50 (SK-MEL-5) | GI50 (NCI-H460) | GI50 (UACC-257) | GI50 (HL-60) | GI50 (HCT-15) | GI50 (CAKI-1) | GI50 (NCI-H23) | GI50 (SK-OV-3) | GI50 (UACC-62) | GI50 (786-0) | GI50 (NCI-H226) |
| --- | --- | --- | --- | --- | --- | --- | --- | --- | --- | --- | --- | --- | --- | --- | --- | --- | --- | --- | --- | --- |
| COc1ccc(C2C(Cl)C(=O)N2NC(=O)c2ccc(N)cc2)cc1OC (stereo not given) | 4.08 µM (inactive) | 15.6 µM (inactive) | 3.1 µM (inactive) | 14.7 µM (inactive) | 5.87 µM (inactive) | 8.11 µM (inactive) | 1.96 µM (inactive) | 2.72 µM (inactive) | 15.4 µM (inactive) | 12.2 µM (inactive) | 20.1 µM (inactive) | 14.5 µM (inactive) | 1.64 µM (inactive) | 7.46 µM | 2.92 µM (inactive) | 6.08 µM (inactive) | 18.8 µM (inactive) | 7.29 µM (inactive) | 2.43 µM (inactive) | 18.7 µM (inactive) |
| CC(C)(C)OCC1NC(=O)[C@@H]2Cc3c([nH]c4ccccc34)C(c3ccccc3)N2C1=O (stereo not given in full) | > 50 µM (inactive) | > 50 µM (inactive) | > 21.6 µM (inactive) | > 50 µM (inactive) | > 50 µM (inactive) | > 50 µM (inactive) | 16.2 µM (inactive) | > 50 µM (inactive) | > 50 µM (inactive) | > 50 µM (inactive) | > 50 µM (inactive) | > 50 µM (inactive) | > 26.2 µM (inactive) | > 50 µM | > 50 µM (inactive) | > 50 µM (inactive) | > 50 µM (inactive) | > 50 µM (inactive) | > 50 µM (inactive) | > 27.4 µM (inactive) |
| CCN(CC)c1ccc2cc(C(=O)Nc3ccccn3)c(=N)oc2c1 | 36.3 µM (inactive) | 28.5 µM (inactive) | > 100 µM (inactive) | 47.5 µM (inactive) | > 100 µM (inactive) | > 100 µM (inactive) | > 100 µM (inactive) | 37.9 µM (inactive) | > 100 µM (inactive) | > 100 µM (inactive) | > 100 µM (inactive) | > 100 µM (inactive) | > 100 µM (inactive) | > 100 µM | > 100 µM (inactive) | 37.8 µM (inactive) | 52 µM (inactive) | 30.3 µM (inactive) | 35.3 µM (inactive) | > 100 µM (inactive) |
| O=C(CC(C(=O)c1ccc(F)cc1)c1ccsc1)c1cccs1 (stereo not given) | > 100 µM (inactive) | 94 µM (inactive) | 37.6 µM (inactive) | > 100 µM (inactive) | > 100 µM (inactive) | > 100 µM (inactive) | 29.6 µM (inactive) | > 100 µM (inactive) | 74.8 µM (inactive) | 62.4 µM (inactive) | 69.7 µM (inactive) | 70.3 µM (inactive) | 55.2 µM (inactive) | 86.9 µM | > 100 µM (inactive) | 32.7 µM (inactive) | > 100 µM (inactive) | > 100 µM (inactive) | > 100 µM (inactive) | 58.1 µM (inactive) |
| COC(=O)[C@H]1[C@@H](O)[C@@]2(O)c3c(OC)cc(OC)cc3O[C@@]2(c2ccc3c(c2)OCO3)[C@@H]1c1ccccc1 | 0.0253 µM (active) | 0.0146 µM (active) | < 0.005 µM (active) | 0.0136 µM (active) | 0.00603 µM (active) | 0.00838 µM (active) | < 0.005 µM (active) | 0.00706 µM (active) | < 0.005 µM (active) | 0.00757 µM (active) | < 0.005 µM (active) | 0.00826 µM (active) | 0.00629 µM (active) | < 0.005 µM | 0.00893 µM (active) | 0.00617 µM (active) | 0.00539 µM (active) | 0.0222 µM (active) | 0.00625 µM (active) | 0.0136 µM (active) |
| CCOP(=O)(OCC)/C(C#N)=C/c1cnc(-c2ccccc2)[nH]1 | > 100 µM (inactive) | > 100 µM (inactive) | > 100 µM (inactive) | > 100 µM (inactive) | 24.7 µM (inactive) | > 100 µM (inactive) | > 100 µM (inactive) | > 100 µM (inactive) | > 100 µM (inactive) | 82.8 µM (inactive) | > 100 µM (inactive) | > 100 µM (inactive) | > 100 µM (inactive) | > 100 µM | > 100 µM (inactive) | 79.6 µM (inactive) | > 100 µM (inactive) | > 100 µM (inactive) | > 100 µM (inactive) | > 100 µM (inactive) |

— ChEMBL document CHEMBL1201862, “PubChem BioAssay data set” (2004)
